# Test results published in US9730448B2, “Tetrazolinone compound and use of same” (Sumitomo Chemical Company, Limited, priority 2013, dated 2017).
# Test system: cucumber powdery mildew fungus (Sphaerotheca fuliginea, a QoI-resistant strain, cytochrome b position 143 glycine to alanine)
# Assay: Test Example 6 and Comparative Test Example: control of cucumber powdery mildew (QoI-resistant strain), foliar spray on cucumber
# Type: in vivo
# Settings: 500 ppm water dilution sprayed on cucumber (SAGAMI HANJIRO); inoculated after air-drying; investigated after 8 days in greenhouse
compound,measurement,value
"Cc1cc(-c2cccs2)ccc1OCc1ccccc1-n1nnn(C)c1=O [1-{[2-[2-methyl-4-(thiophen-2-yl)phenoxy]methyl]phenyl}-4-methyl-1,4-dihydrotetrazol-5-one]",area of lesion spots on the treated plant relative to that on an untreated plant,≥ 70%
